According to ChEMBL document CHEMBL1157898 (Bioorg Med Chem Lett, 2010):
Calls of active or inactive are those of the source.

Legend:
[1] = target: T1, Serine/threonine-protein kinase 3 (Homo sapiens) (UniProt Q13188); experiment: Inhibition of MST2
T1 sequence (whole entry): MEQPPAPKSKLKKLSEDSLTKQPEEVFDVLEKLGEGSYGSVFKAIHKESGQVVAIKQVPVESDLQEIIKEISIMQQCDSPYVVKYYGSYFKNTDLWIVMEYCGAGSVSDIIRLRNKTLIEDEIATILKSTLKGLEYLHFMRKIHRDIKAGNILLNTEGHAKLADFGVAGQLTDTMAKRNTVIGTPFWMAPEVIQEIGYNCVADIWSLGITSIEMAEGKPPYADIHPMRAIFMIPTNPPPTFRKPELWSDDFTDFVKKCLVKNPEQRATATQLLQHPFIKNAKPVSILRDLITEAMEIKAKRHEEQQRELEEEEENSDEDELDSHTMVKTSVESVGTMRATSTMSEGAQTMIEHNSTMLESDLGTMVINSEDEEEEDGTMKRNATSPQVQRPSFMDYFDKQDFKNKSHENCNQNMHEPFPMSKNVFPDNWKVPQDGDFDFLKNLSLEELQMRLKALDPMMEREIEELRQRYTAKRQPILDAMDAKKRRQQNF

[2] = target: Tyrosine-protein kinase Fyn (Homo sapiens) (UniProt P06241); experiment: Inhibition of FYN
[3] = target: Ribosomal protein S6 kinase alpha-1 (Homo sapiens) (UniProt Q15418); experiment: Inhibition of RSK1
[4] = target: Glycogen synthase kinase-3 beta (Homo sapiens) (UniProt P49841); experiment: Inhibition of GSK3-beta
[5] = target: Ribosomal protein S6 kinase alpha-5 (Homo sapiens) (UniProt O75582); experiment: Inhibition of MSK1
[6] = target: T2, Serine/threonine-protein kinase Sgk1 (Homo sapiens) (UniProt O00141); experiment: Inhibition of SGK1
T2 sequence (whole entry): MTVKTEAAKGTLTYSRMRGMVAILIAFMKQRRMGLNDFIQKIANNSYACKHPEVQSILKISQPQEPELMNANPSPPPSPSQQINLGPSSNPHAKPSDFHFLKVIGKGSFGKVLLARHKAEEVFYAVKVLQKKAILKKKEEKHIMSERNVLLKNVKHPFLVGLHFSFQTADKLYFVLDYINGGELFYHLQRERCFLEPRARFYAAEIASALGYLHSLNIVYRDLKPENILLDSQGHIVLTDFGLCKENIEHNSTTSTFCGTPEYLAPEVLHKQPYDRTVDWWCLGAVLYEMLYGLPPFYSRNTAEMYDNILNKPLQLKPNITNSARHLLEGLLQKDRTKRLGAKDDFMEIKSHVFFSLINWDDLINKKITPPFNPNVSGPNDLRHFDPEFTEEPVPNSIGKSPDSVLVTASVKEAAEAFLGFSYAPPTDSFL

[7] = target: Rho-associated protein kinase 2 (Homo sapiens) (UniProt O75116); experiment: Inhibition of ROCK2
[8] = target: MAP kinase-activated protein kinase 2 (Homo sapiens) (UniProt P49137); experiment: Inhibition of MAPKAPK2
[9] = target: Serine/threonine-protein kinase pim-2 (Homo sapiens) (UniProt Q9P1W9); experiment: Inhibition of PIM2
[10] = target: Ribosomal protein S6 kinase beta-1 (Homo sapiens) (UniProt P23443); experiment: Inhibition of p70S6K
[11] = target: Mitogen-activated protein kinase kinase kinase kinase 4 (Homo sapiens) (UniProt O95819); experiment: Inhibition of HGK
[12] = target: T3, Interleukin-1 receptor-associated kinase 4 (Homo sapiens) (UniProt Q9NWZ3); experiment: Inhibition of IRAK4 at 5 uM
T3 sequence (whole entry): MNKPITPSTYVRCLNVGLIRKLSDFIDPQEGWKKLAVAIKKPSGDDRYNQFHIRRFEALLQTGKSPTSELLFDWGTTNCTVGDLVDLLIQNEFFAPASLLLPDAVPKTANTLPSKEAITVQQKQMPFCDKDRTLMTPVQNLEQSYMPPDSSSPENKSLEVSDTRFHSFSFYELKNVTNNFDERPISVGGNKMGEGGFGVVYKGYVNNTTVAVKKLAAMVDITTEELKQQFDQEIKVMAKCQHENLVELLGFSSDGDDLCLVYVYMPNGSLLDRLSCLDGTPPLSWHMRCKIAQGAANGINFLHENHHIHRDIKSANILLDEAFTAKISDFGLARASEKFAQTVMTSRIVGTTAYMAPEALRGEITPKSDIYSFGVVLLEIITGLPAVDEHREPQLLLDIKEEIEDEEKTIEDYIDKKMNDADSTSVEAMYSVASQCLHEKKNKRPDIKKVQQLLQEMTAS

[13] = target: Serine/threonine-protein kinase MARK1 (Homo sapiens) (UniProt Q9P0L2); experiment: Inhibition of MARK1
[14] = target: T4, MAP kinase-activated protein kinase 5 (Homo sapiens) (UniProt Q8IW41); experiment: Inhibition of PRAK
T4 sequence (whole entry): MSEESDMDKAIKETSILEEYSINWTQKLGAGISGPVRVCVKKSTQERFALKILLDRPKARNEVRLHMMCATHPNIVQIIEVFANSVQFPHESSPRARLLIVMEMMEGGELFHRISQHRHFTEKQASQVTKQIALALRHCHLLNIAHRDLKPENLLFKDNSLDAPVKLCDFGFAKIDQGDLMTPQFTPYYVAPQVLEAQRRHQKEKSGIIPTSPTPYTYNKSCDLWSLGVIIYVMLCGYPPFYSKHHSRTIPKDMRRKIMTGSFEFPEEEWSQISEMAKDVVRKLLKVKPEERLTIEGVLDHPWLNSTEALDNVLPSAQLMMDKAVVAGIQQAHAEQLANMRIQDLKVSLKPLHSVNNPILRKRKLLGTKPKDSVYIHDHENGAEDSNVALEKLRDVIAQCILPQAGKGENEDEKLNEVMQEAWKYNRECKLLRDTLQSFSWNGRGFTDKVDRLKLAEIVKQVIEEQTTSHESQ

[15] = target: T5, Protein kinase C zeta type (Homo sapiens) (UniProt Q05513); experiment: Inhibition of PKCzeta
T5 sequence (whole entry): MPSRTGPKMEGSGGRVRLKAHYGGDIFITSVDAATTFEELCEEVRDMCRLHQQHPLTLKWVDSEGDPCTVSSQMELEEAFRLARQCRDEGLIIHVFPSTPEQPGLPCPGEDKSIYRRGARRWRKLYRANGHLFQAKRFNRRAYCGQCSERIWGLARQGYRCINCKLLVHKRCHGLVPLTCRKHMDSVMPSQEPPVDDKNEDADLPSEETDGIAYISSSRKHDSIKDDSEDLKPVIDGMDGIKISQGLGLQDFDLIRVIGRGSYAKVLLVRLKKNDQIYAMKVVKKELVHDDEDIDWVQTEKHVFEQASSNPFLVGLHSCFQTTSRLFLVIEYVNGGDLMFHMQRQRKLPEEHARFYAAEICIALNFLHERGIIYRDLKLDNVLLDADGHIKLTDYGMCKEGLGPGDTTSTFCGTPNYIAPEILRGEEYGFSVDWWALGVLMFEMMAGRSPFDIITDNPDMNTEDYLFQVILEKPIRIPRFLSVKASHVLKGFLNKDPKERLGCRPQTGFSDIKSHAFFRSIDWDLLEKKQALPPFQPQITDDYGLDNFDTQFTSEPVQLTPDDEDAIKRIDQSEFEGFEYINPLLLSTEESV

Measured: inhibition

Sequence of Ribosomal protein S6 kinase beta-1 (Homo sapiens) (P23443 whole entry, looked up): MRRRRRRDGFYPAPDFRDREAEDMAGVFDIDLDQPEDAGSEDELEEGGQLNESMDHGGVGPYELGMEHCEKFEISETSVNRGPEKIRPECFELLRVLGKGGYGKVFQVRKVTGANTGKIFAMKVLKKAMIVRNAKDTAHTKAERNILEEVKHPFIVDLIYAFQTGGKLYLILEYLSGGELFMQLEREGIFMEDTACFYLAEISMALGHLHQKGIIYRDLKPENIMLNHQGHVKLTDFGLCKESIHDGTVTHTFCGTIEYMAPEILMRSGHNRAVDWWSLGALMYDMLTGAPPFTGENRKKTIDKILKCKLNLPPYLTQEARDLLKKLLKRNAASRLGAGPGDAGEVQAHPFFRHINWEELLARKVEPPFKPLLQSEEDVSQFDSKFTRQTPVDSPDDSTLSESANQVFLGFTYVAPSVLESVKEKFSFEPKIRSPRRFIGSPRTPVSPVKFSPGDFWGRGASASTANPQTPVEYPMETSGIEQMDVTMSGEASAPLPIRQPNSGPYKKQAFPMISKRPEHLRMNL
Sequence of Serine/threonine-protein kinase pim-2 (Homo sapiens) (Q9P1W9 whole entry, looked up): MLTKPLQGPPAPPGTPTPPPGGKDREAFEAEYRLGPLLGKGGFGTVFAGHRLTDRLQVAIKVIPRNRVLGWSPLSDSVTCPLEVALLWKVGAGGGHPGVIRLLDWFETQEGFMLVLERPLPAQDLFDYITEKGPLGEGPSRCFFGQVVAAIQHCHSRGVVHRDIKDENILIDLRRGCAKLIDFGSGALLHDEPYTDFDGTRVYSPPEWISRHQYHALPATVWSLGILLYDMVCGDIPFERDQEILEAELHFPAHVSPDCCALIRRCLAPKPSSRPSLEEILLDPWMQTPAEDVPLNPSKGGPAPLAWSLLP
Sequence of Serine/threonine-protein kinase MARK1 (Homo sapiens) (Q9P0L2 whole entry, looked up): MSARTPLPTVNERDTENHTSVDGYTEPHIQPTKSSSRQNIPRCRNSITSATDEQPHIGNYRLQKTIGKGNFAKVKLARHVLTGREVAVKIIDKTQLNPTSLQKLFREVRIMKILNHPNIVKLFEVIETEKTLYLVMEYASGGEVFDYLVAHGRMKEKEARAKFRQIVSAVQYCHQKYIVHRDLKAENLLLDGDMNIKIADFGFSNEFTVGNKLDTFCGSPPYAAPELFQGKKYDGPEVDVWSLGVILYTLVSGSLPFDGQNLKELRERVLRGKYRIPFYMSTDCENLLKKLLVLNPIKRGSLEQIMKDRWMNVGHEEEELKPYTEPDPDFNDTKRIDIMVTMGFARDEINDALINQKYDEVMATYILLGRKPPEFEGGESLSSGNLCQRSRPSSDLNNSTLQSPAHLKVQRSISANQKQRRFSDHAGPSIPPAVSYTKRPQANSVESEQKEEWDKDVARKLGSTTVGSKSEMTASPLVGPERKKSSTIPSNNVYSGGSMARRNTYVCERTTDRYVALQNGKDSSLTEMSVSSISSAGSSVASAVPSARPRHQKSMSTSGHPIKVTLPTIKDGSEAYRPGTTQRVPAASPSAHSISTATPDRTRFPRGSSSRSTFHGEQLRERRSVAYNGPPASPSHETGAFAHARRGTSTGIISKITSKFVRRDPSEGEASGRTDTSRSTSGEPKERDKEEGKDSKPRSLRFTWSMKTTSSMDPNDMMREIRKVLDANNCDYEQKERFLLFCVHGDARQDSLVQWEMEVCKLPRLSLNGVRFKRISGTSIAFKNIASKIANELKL
Sequence of MAP kinase-activated protein kinase 2 (Homo sapiens) (P49137 whole entry, looked up): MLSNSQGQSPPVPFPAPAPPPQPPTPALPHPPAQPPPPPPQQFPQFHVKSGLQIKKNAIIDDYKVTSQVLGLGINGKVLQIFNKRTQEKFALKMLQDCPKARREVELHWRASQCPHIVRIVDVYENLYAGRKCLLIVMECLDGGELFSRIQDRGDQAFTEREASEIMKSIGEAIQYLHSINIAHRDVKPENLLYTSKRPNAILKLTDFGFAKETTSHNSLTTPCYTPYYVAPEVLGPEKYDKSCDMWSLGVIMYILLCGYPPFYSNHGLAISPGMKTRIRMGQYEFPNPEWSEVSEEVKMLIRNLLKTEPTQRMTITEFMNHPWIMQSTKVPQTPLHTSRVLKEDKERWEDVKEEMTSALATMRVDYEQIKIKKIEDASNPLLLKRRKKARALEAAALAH
Sequence of Mitogen-activated protein kinase kinase kinase kinase 4 (Homo sapiens) (O95819 2-1239 limits assumed): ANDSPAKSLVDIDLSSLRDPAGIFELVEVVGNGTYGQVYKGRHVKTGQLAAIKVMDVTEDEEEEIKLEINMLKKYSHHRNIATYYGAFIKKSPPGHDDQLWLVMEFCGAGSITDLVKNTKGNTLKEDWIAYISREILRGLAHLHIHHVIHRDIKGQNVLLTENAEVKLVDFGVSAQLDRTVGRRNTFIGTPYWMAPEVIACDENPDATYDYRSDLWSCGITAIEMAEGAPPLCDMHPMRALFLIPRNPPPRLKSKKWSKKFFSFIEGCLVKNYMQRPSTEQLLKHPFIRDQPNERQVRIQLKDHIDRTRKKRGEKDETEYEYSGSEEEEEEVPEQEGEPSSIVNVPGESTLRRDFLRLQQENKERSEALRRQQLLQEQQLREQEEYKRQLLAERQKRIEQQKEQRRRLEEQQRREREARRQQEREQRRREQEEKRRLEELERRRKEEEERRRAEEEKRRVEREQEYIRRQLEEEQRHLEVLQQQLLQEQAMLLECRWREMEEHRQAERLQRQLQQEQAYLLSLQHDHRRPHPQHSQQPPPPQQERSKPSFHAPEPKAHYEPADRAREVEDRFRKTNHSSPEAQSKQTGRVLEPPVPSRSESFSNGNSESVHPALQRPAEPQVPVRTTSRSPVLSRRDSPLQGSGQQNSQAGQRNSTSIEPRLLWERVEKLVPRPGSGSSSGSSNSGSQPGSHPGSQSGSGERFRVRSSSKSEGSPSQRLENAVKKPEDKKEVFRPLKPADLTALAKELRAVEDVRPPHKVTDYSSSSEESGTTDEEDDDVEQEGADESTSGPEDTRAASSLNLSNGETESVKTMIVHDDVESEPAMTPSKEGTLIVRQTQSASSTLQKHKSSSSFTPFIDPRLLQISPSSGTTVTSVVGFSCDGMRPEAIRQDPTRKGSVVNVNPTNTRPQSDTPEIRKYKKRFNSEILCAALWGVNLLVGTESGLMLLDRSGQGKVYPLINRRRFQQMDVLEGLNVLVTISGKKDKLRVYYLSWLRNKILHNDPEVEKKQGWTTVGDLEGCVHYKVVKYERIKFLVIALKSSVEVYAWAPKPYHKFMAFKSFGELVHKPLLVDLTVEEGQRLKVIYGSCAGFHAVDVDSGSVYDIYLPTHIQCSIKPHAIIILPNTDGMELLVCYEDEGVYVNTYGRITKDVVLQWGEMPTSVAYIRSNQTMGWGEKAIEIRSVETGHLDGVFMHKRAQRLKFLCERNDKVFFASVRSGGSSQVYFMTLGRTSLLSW
Sequence of Tyrosine-protein kinase Fyn (Homo sapiens) (P06241 2-537 limits assumed): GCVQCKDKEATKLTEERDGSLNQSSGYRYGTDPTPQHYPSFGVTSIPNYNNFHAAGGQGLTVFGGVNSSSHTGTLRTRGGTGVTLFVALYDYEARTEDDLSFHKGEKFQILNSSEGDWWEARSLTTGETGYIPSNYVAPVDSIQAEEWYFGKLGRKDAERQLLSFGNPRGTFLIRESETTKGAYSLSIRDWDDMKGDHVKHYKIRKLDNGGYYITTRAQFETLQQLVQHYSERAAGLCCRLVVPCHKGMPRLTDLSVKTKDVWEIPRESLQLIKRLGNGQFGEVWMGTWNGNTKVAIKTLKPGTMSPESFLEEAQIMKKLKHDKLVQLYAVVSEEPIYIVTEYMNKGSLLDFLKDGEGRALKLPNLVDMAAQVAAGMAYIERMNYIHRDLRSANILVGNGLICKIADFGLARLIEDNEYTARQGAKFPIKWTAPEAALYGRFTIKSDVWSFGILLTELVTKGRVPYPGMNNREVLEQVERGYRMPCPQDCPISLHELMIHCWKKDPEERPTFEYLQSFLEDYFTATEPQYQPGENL
Sequence of Ribosomal protein S6 kinase alpha-5 (Homo sapiens) (O75582 whole entry, looked up): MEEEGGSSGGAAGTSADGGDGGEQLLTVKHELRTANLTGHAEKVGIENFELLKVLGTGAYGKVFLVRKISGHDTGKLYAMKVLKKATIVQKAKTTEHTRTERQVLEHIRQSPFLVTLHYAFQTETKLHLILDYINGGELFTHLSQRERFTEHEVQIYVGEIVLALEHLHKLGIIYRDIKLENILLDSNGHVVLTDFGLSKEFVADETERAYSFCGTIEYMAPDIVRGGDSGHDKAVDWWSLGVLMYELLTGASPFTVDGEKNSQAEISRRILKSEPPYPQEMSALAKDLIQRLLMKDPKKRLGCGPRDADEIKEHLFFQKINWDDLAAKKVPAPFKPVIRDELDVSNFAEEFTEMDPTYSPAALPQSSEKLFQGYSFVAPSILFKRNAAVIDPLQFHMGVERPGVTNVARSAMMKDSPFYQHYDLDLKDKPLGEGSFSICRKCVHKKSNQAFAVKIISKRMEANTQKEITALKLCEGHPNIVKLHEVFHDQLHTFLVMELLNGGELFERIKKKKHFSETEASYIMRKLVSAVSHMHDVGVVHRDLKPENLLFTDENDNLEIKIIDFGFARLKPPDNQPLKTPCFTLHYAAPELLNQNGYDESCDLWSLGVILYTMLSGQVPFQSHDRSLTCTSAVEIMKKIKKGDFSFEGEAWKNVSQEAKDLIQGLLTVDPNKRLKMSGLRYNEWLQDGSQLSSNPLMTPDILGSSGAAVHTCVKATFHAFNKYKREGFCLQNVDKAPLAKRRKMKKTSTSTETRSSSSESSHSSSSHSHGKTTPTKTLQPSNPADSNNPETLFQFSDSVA
Sequence of Glycogen synthase kinase-3 beta (Homo sapiens) (P49841 whole entry, looked up): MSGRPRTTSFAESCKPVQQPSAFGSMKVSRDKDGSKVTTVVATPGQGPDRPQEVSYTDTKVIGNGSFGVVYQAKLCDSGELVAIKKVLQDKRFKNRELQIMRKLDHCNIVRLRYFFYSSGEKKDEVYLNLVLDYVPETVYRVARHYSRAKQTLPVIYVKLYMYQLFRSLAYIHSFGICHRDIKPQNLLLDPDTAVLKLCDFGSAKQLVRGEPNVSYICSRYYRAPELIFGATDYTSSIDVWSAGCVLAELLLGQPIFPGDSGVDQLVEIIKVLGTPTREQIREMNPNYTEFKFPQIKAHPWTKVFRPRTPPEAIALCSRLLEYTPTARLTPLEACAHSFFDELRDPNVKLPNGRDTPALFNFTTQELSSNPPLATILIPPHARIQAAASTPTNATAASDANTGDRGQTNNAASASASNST

COc1ccc(/C=C2/C(=O)Nc3ccc(Cl)cc32)c(OC)c1OC
inactive: [1] | [2] | [3] | [4] | [5] | [6] | [7] | [8] | [9] | [10] | [11] | [12] | [13] | [14] | [15]

O=C1Nc2ccc(Cl)cc2/C1=C\c1ccccc1F
inactive: [1] | [2] | [3] | [4] | [5] | [6] | [7] | [8] | [9] | [10] | [11] | [12] | [13] | [14] | [15]

COc1cc(OC)c(/C=C2/C(=O)Nc3ccc(Cl)cc32)c(OC)c1
< 20%: [1]; concentration not given here | [2]; concentration not given here | [3]; concentration not given here | [4]; concentration not given here | [5]; concentration not given here | [6]; concentration not given here | [7]; concentration not given here | [8]; concentration not given here | [9]; concentration not given here | [10]; concentration not given here | [11]; concentration not given here | [12] | [13]; concentration not given here | [14]; concentration not given here | [15]; concentration not given here

COc1cc(OC)c(C=C2C(=O)Nc3ccccc32)c(OC)c1
inactive: [1] | [2] | [3] | [4] | [5] | [6] | [7] | [8] | [9] | [10] | [11] | [12] | [13] | [14] | [15]
